Experiments:
[1] = test system: neonatal SMA Δ7 homozygous knockout mice; experiment: Righting reflex in neonatal Δ7 SMA mice; assay type: in vivo; settings: IP QD from PND 3, versus vehicle (FIG. 14)
Protocol: The functional change in righting reflex of neonatal SMA mice is used to determine whether treatment with a test compound improves righting reflex.
Protocol. SMA Δ7 homozygous knockout mice are dosed intraperitoneally (IP) with test compound or vehicle (100% DMSO) QD from PND 3 until the dose regimen is switched to an oral dose BID in 0.5% hydroxypropylmethyl cellulose (HPMC) with 0.1% Tween-80 at a dose 3.16-fold higher than the dose used for IP. The righting reflex time is measured as the time taken by a mouse to flip over onto its feet after being laid on its back. Righting reflex is measured five times for each mouse (allowing a maximal time of 30 sec for each try) with 5 minutes between each measurement. The righting reflex time for SMA Δ7 homozygous knockout mice treated with test compound or vehicle and age-matched heterozygous mice is measured on PND 10, 14 and 18 and plotted.

[2] = test system: Smn protein in human motor neurons derived from SMA iPS cells; experiment: Smn protein assay in human motor neurons; assay type: cell-based; settings: 72 hours, increasing concentrations (FIG. 10)
Protocol: Smn immunofluorescent confocal microscopy is used to quantify the level of Smn protein in human motor neurons treated with test compounds.
Protocol. Human motor neurons derived from SMA iPS cells (Ebert et al., Nature, 2009, […]; and, Rubin et al., BMC Biology, 2011, 9:42) are treated with test compound at various concentrations for 72 hours. The level of Smn protein in the cell nucleus is quantified using Smn immunostaining and confocal fluorescence microscopy essentially as described in Makhortova et al., Nature Chemical Biology, 2011, 7:544. The level of Smn protein in compound-treated samples is normalized to that in vehicle-treated samples and plotted as a function of the compound concentration.

Row | Structure (SMILES) | righting reflex [1] | Smn protein in the nucleus [2]
1 | COc1ccc(-c2cc(=O)n3cc(N4CCNCC4)ccc3n2)cc1OC [Cpd 6, 2-(3,4-dimethoxyphenyl)-7-(piperazin-1-yl)-4H-pyrido[1,2-a]pyrimidin-4-one] | improved compared to vehicle treated mice | progressively more Smn protein in the nucleus
2 | Cc1cn2nc(-c3cc(=O)n4cc(N5CCN(C)CC5)ccc4n3)cc2c(C)n1 [Cpd 170, 2-(4,6-dimethylpyrazolo[1,5-a]pyrazin-2-yl)-7-(4-methylpiperazin-1-yl)-4H-pyrido[1,2-a]pyrimidin-4-one] | improved compared to vehicle treated mice | 
